Literature values, collected in patent US7842720B2, “Anticancer and antiprotozoal dihydroartemisinene and dihydroartemisitene dimers with desirable chemical functionalities” (Elsohly Laboratories, Incorporated, priority 2004, dated 2010).

What was measured:
malaria = conditions: comparison among artemisinin derivatives
[1] = tested on: chloroquine-sensitive and chloroquine-resistant strains of Plasmodium falciparum

Compound: C[C@H]1[C@H](OC(=O)CCC(=O)[O-])O[C@@H]2O[C@@]3(C)CC[C@H]4[C@H](C)CC[C@@H]1[C@@]24OO3.[Na+] [sodium artesunate]
- anti-malarial activity relative to comparator (malaria): more activity

Compound: C[C@@H]1CC[C@H]2[C@@H](C)C(=O)O[C@@H]3O[C@@]4(C)CC[C@@H]1[C@]32OO4 [artemisinin]
- anti-malarial activity [1]: anti-malarial activity
